Assay results from patent publication US20050277699A1, “Method of decreasing sebum production and pore size” (Unilever Home & Personal Care USA, Division Of Conopco, Inc., priority 2004, published 2005).

Tested on: human sebocytes
Experiment: Sebocyte assay: 14C-acetate label remaining in cultured sebocytes (sebum suppression)
Format: cell-based
Description: Secondary cultures of human sebocytes obtained from an adult […] were grown in 96-well tissue culture plates (Packard) until three days post-confluence. Sebocyte growth medium consisted of Clonetics Keratinocyte Basal Medium (KBM) supplemented with 14 ug/ml bovine pituitary extract, 0.4 ug/ml hydrocortisone, 5 ug/ml insulin, 10 ng/ml epidermal growth factor, 1.2×10^−10 M cholera toxin, 100 units/ml penicillin, and 100 ug/ml streptomycin. All cultures were incubated at 37° C. in the presence of 7.5% CO2. Medium was changed three times per week. On the day of experimentation, the growth medium was removed and the sebocytes washed three times with sterile Dulbecco's Modified Eagle Medium (DMEM; phenol red free). Fresh DMEM (200-microliters per well) was added to each sample (5 replicates) with 5-microliters of test agent (DL-α-Difluoromethylornithine hydrochloride) solubilized in water. Controls consisted of addition of water alone. Each plate was returned to the incubator for 20-hours followed by the addition of ^14C-acetate buffer (5 mM final concentration, 56 mCi/mmol specific activity). Sebocytes were returned to the incubator for 4-hours afterwhich each culture was rinsed 3-times with phosphate buffered saline to remove unbound label. Radioactive label remaining in the sebocytes was determined using a Packard TopCount scintillation counter. Statistical significance (p value) was calculated using student's t-test. Phenol Red, a known sebum suppressive agent, was employed as a positive control. […] The experiment was repeated as above with modifications. On the day of experimentation, the growth medium was removed and the sebocytes washed three times with sterile Dulbecco's Modified Eagle Medium (DMEM; phenol red free). Fresh DMEM was added to each sample (3 replicates) with 5-microliters of test agent (DL-a-Difluoromethylornithine hydrochloride) solubilized in water. Controls consisted of addition of water alone. Each plate was returned to the incubator for 68-hours followed by the addition of ^14C-acetate buffer (5 mM final concentration, 56 mCi/mmol specific activity). Sebocytes were returned to the incubator for 4-hours, followed by rinsing each culture 3-times with phosphate buffered saline to remove unbound label. Radioactive label remaining in the sebocytes was determined using a Packard TopCount scintillation counter. Statistical significance (p value) was calculated using student's t-test.

| Structure (SMILES) | activity at 28.2 µM (Homo sapiens, 28.2 uM, 20-hours incubation then 4-hours 14C-acetate (24-hours), positive control, read-out: % of Control (radioactive label remaining in the sebocytes)) [%] | activity at 282 µM (Homo sapiens, 282 uM, 20-hours incubation then 4-hours 14C-acetate (24-hours), positive control, read-out: % of Control (radioactive label remaining in the sebocytes)) [%] | % of Control (radioactive label remaining in the sebocytes) (10 uM, 20-hours incubation then 4-hours 14C-acetate (24-hours), 5 replicates) [%] | % of Control (radioactive label remaining in the sebocytes) (10 uM, 68-hours incubation then 4-hours 14C-acetate, 3 replicates) [%] | % of Control (radioactive label remaining in the sebocytes) (1000 uM, 20-hours incubation then 4-hours 14C-acetate (24-hours), 5 replicates) [%] | % of Control (radioactive label remaining in the sebocytes) (1000 uM, 68-hours incubation then 4-hours 14C-acetate, 3 replicates) [%] | sebum suppressive activity (in words) (after prolonged incubation (68-hours + 4-hours)) |
| --- | --- | --- | --- | --- | --- | --- | --- |
| O=S1(=O)OC(c2ccc(O)cc2)(c2ccc(O)cc2)c2ccccc21 [Phenol Red] | 22.1 | 34.5 |  |  |  |  |  |
| Cl.NCCCC(N)(C(=O)O)C(F)F (racemic) [DFMO, DL-α-Difluoromethylornithine hydrochloride] |  |  | 95.5 | 59.5 | 88.0 | 41.4 | enhanced sebum suppressive activity |
